Test results taken from PubChem BioAssay (NCI).
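Protocol summary: plate cells (96-well), add compound at 5 concentrations, incubate 48 h, interpolate endpoints linearly. TGI: concentration producing complete growth inhibition.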

Legend:
Experiment in all cases: NCI anticancer screen, dose series, 48 h
[1] = system: 786-0 renal
[2] = system: A498 renal
[3] = system: A549 NSCLC
[4] = system: ACHN renal
[5] = system: BT-549 breast
[6] = system: CAKI-1 renal
[7] = system: CCRF-CEM leukemia
[8] = system: COLO 205 colon
[9] = system: DU-145 prostate
[10] = system: EKVX NSCLC
[11] = system: HCC-2998 colon
[12] = system: HCT-116 colon
[13] = system: HCT-15 colon
[14] = system: HL-60(TB) leukemia
[15] = system: HOP-62 NSCLC
[16] = system: HOP-92 NSCLC
[17] = system: HS 578T breast
[18] = system: HT29 colon
[19] = system: IGROV1 ovarian
[20] = system: K-562 leukemia
[21] = system: KM12 colon
[22] = system: LOX IMVI melanoma
[23] = system: M14 melanoma
[24] = system: MCF7 breast
[25] = system: MDA-MB-231 breast
[26] = system: MDA-MB-435
[27] = system: MDA-N
[28] = system: MOLT-4 leukemia
[29] = system: NCI-H226 lung
[30] = system: NCI-H23 lung
[31] = system: NCI-H460 lung
[32] = system: NCI-H522 lung
[33] = system: NCI/ADR-RES ovarian
[34] = system: OVCAR-3 ovarian
[35] = system: OVCAR-4 ovarian
[36] = system: OVCAR-5 ovarian
[37] = system: OVCAR-8 ovarian
[38] = system: PC-3 prostate
[39] = system: RPMI-8226 leukemia
[40] = system: RXF 393 renal
[41] = system: SF-268 CNS
[42] = system: SF-295 CNS
[43] = system: SF-539 CNS
[44] = system: SK-MEL-2 melanoma
[45] = system: SK-MEL-28 melanoma
[46] = system: SK-MEL-5 melanoma
[47] = system: SK-OV-3 ovarian
[48] = system: SN12C renal
[49] = system: SNB-19 CNS
[50] = system: SNB-75 CNS
[51] = system: SR leukemia
[52] = system: SW-620 colon
[53] = system: T-47D breast
[54] = system: TK-10 renal
[55] = system: U251 CNS
[56] = system: UACC-257 melanoma
[57] = system: UACC-62 melanoma
[58] = system: UO-31 renal
[59] = system: MALME-3M melanoma

In the case of `CCCCCCCCCCCCCCCC(=O)Nc1ccn(C2CC(OP(=O)(O)OCC3OC(n4cc(F)c(=O)[nH]c4=O)CC3OC(C)=O)C(CO)O2)c(=O)n1` (centres undefined), the TGI [1] is reported as > 100 µM, the TGI [2] is reported as > 100 µM and the TGI [3] is reported as > 41.3 µM. For the same compound, the TGI [4] was 3.54 µM, the TGI [5] was 62.2 µM and the TGI [6] was > 35.7 µM. The TGI [7] was > 100 µM, the TGI [8] was > 66.3 µM and the TGI [9] was > 100 µM. For the same compound, the TGI [10] was > 100 µM, the TGI [11] was > 36.5 µM and the TGI [12] was > 100 µM. The TGI [13] was > 65.4 µM, the TGI [14] was > 21.9 µM and the TGI [15] was 13.3 µM. The TGI [16] was > 100 µM, the TGI [17] was 90.9 µM and the TGI [18] was 52.8 µM. The TGI [19] was > 100 µM, the TGI [20] was > 100 µM and the TGI [21] was 48.1 µM. For the same compound, the TGI [22] was > 100 µM, the TGI [23] was > 39.7 µM and the TGI [24] was > 100 µM. For the same compound, the TGI [25] was > 61.5 µM, the TGI [26] was > 94.8 µM and the TGI [27] was > 100 µM. For the same compound, the TGI [28] was 34.4 µM, the TGI [29] was > 100 µM and the TGI [30] was > 63.9 µM. The TGI [31] was > 100 µM, the TGI [32] was 37.7 µM and the TGI [33] was 46.1 µM. The TGI [34] was > 100 µM, the TGI [35] was > 100 µM and the TGI [36] was > 64.5 µM. For the same compound, the TGI [37] was > 52.3 µM, the TGI [38] was 25.2 µM and the TGI [39] was 27.9 µM. The TGI [40] was > 71 µM, the TGI [41] was > 44.4 µM and the TGI [42] was > 45.2 µM. For the same compound, the TGI [43] was > 39.5 µM, the TGI [44] was > 63.4 µM and the TGI [45] was > 100 µM. For the same compound, the TGI [46] was > 96.5 µM, the TGI [47] was > 51.6 µM and the TGI [48] was > 49.9 µM. For the same compound, the TGI [49] was > 63.2 µM, the TGI [50] was > 51.6 µM and the TGI [51] was 22.7 µM. For the same compound, the TGI [52] was > 100 µM, the TGI [53] was > 100 µM and the TGI [54] was > 100 µM. For the same compound, the TGI [55] was 71.8 µM, the TGI [56] was > 100 µM and the TGI [57] was > 47.2 µM. The TGI [58] was 2.75 µM.
In the case of `O=c1oc2c([N+](=O)[O-])cc([N+](=O)[O-])cc2c2ccccc12`, the TGI [1] is reported as > 100 µM, the TGI [2] is reported as > 100 µM and the TGI [3] is reported as > 100 µM. For the same compound, the TGI [4] was > 100 µM, the TGI [5] was > 100 µM and the TGI [6] was > 100 µM. For the same compound, the TGI [7] was > 100 µM, the TGI [8] was > 100 µM and the TGI [9] was > 100 µM. The TGI [10] was > 100 µM, the TGI [11] was > 100 µM and the TGI [12] was > 100 µM. For the same compound, the TGI [13] was > 100 µM, the TGI [14] was > 100 µM and the TGI [15] was > 100 µM. For the same compound, the TGI [16] was > 100 µM, the TGI [17] was > 100 µM and the TGI [18] was > 100 µM. For the same compound, the TGI [19] was > 100 µM, the TGI [20] was > 100 µM and the TGI [22] was > 100 µM. For the same compound, the TGI [23] was > 100 µM, the TGI [59] was > 100 µM and the TGI [24] was > 100 µM. The TGI [25] was > 100 µM, the TGI [26] was > 100 µM and the TGI [27] was > 100 µM. The TGI [28] was > 100 µM, the TGI [29] was > 100 µM and the TGI [30] was > 100 µM. For the same compound, the TGI [31] was > 100 µM, the TGI [32] was > 100 µM and the TGI [33] was > 100 µM. For the same compound, the TGI [34] was > 100 µM, the TGI [35] was > 100 µM and the TGI [36] was > 100 µM. The TGI [37] was > 100 µM, the TGI [38] was > 100 µM and the TGI [39] was > 100 µM. The TGI [40] was > 100 µM, the TGI [41] was > 100 µM and the TGI [42] was > 100 µM. The TGI [43] was > 100 µM, the TGI [44] was > 100 µM and the TGI [45] was > 100 µM. The TGI [46] was > 100 µM, the TGI [48] was > 100 µM and the TGI [49] was > 100 µM. For the same compound, the TGI [50] was > 100 µM, the TGI [51] was > 100 µM and the TGI [52] was > 100 µM. For the same compound, the TGI [53] was > 100 µM, the TGI [54] was > 100 µM and the TGI [55] was > 100 µM. The TGI [56] was > 100 µM and the TGI [57] was > 100 µM.
